Laboratory results published in the supplement of paper PMC13380429.

Assays:
[1] = tested on: A549-ACE2 infected with SARS-CoV-2; experiment: cell count relative to DMSO; higher = less toxic; conditions: 24 h
[2] = tested on: Caco-2; experiment: cell viability relative to DMSO; higher = less toxic; conditions: 72 h
[3] = tested on: Calu-3; experiment: as above; conditions: 72 h
[4] = tested on: HepG2; experiment: as above; conditions: 72 h
[5] = tested on: U2OS; experiment: as above; conditions: 72 h
[6] = tested on: Vero E6; experiment: as above; conditions: 72 h
[7] = tested on: A549-ACE2 infected with SARS-CoV-2; experiment: SARS-CoV-2 infection rate relative to DMSO; higher = more infection; conditions: 24 h
[8] = tested on: A549-ACE2; experiment: drug-induced phospholipidosis relative to tamoxifen; higher = more phospholipidosis
[9] = tested on: A549-ACE2 infected with SARS-CoV-2; experiment: morphology score (similarity to uninfected cells); higher = more like uninfected cells; conditions: 24 h
[10] = tested on: Calu-3; experiment: relative viability EC50 (midpoint between 100% and the lowest measured viability); higher = less toxic; conditions: 72 h
[11] = tested on: U2OS; experiment: as above; conditions: 72 h
[12] = tested on: Vero E6; experiment: as above; conditions: 72 h
[13] = tested on: Caco-2; experiment: drug sensitivity score (DSS) for viability; higher = more toxic; extreme values may be limits of the assay; conditions: 72 h
[14] = tested on: Calu-3; experiment: as above; conditions: 72 h
[15] = tested on: HepG2; experiment: as above; conditions: 72 h
[16] = tested on: U2OS; experiment: as above; conditions: 72 h
[17] = tested on: Vero E6; experiment: as above; conditions: 72 h
[18] = tested on: Caco-2; experiment: relative viability EC50 (midpoint between 100% and the lowest measured viability); higher = less toxic; conditions: 72 h
[19] = tested on: HepG2; experiment: as above; conditions: 72 h

COc1cc2ncnc(Sc3nnc(C)s3)c2cc1OC [SKLB1002]
Conditions | SARS-CoV-2 infection rate, [7] [%] | cell count, [1] [%] | cell viability, [2] [%] | cell viability, [3] [%] | cell viability, [4] [%] | cell viability, [5] [%] | cell viability, [6] [%] | morphology score, [9]
1 nM | – | – | 101 | 103 | 104 | 99.1 | 96.2 | –
10 nM | – | – | 92 | 99.2 | 99.6 | 99.4 | 94.8 | –
100 nM | – | – | 97.7 | 96.3 | 105 | 102 | 92.7 | –
0.3 µM | 105 | 102 | – | – | – | – | – | -0.11
1000 nM | – | – | 94.4 | 92.1 | 105 | 102 | 98.4 | –
3 µM | 105 | 102 | – | – | – | – | – | -0.15
10 µM | 106 | 97 | – | – | – | – | – | 0.01
10000 nM | – | – | 73.7 | 107 | 59.1 | 88.3 | 87.8 | –
30 µM | 79 | 85 | – | – | – | – | – | 0.25

drug-induced phospholipidosis [%], [8]
Conditions | 0.3 µM | 0.833333 µM | 3.33333 µM | 6.66667 µM | 10 µM | 30 µM
24 h | 7.29 | 1.02 | 4.5 | 10.7 | 22.8 | 44.1
48 h | 7.01 | -1.13 | -0.08 | 3.84 | 12.5 | –
72 h | 8.05 | -2.71 | -0.571 | -0.945 | 0.143 | –

Conditions | drug sensitivity score | relative viability EC50 [µM]
[10] | – | > 10
[11] | – | > 10
[12] | – | > 10
[13] | 1.9 | –
[14] | 0 | –
[15] | 1.7 | –
[16] | 0 | –
[17] | 0 | –

O=C(NCc1ccccc1)c1csc(Nc2ccncn2)n1 [thiazovivin]
Conditions | SARS-CoV-2 infection rate, [7] [%] | cell count, [1] [%] | cell viability, [2] [%] | cell viability, [3] [%] | cell viability, [4] [%] | cell viability, [5] [%] | cell viability, [6] [%] | morphology score, [9]
1 nM | – | – | 95.1 | 102 | 90.1 | 105 | 101 | –
10 nM | – | – | 96.8 | 95.5 | 97.8 | 100 | 101 | –
0.1 µM | 98 | 115 | – | – | – | – | – | 0.31
100 nM | – | – | 97.3 | 109 | 101 | 100 | 99.1 | –
0.3 µM | 101 | 108 | – | – | – | – | – | 0.18
1 µM | 98 | 90 | – | – | – | – | – | 0.16
1000 nM | – | – | 100 | 126 | 93.8 | 93.9 | 88.7 | –
3 µM | 108 | 88 | – | – | – | – | – | -0.1
10000 nM | – | – | 88.4 | 138 | 73.9 | 85.9 | 64.7 | –

drug-induced phospholipidosis [%], [8]
Conditions | 0.3 µM | 0.833333 µM | 3.33333 µM | 6.66667 µM | 10 µM | 30 µM
24 h | -0.85 | -1.1 | -1.59 | -0.13 | 1.72 | 4.97
48 h | -1.39 | -3.9 | -3.92 | -1.45 | -1.05 | 3.79
72 h | -0.652 | -4.81 | -3.84 | -1.69 | 1.23 | –

Conditions | drug sensitivity score | relative viability EC50 [µM]
[10] | – | > 10
[11] | – | > 10
[13] | 0 | –
[14] | 0 | –
[15] | 1.9 | –
[16] | 0.6 | –
[17] | 3.3 | –
[18] | – | > 10

C#C[C@]1(O)CC[C@H]2[C@@H]3CCC4=CC(=NO)CC[C@@H]4[C@H]3CC[C@@]21CC (mixture of isomers) [norelgestromin]
cell viability [%]
Conditions | [2] | [3] | [4] | [5] | [6]
1 nM | 89 | 102 | 95.9 | 99.1 | 102
10 nM | 94.1 | 95.2 | 101 | 101 | 101
100 nM | 91.7 | 103 | 105 | 94.4 | 92
1000 nM | 98.3 | 93.5 | 108 | 101 | 99.1
10000 nM | 98.5 | 101 | 110 | 98.6 | 103

Conditions | drug sensitivity score | relative viability EC50 [µM]
[10] | – | > 10
[11] | – | > 10
[12] | – | > 10
[13] | 0 | –
[14] | 0 | –
[15] | 0 | –
[16] | 0 | –
[17] | 0 | –
[18] | – | > 10
[19] | – | > 10

C=CCN1CC[C@]23CCCC[C@H]2[C@H]1Cc1ccc(O)cc13 [levallorphan]
cell viability [%]
Conditions | [2] | [3] | [4] | [5] | [6]
1 nM | 94.6 | 108 | 102 | 98.6 | 101
10 nM | 105 | 97 | 105 | 93.8 | 103
100 nM | 108 | 99.8 | 94.2 | 97.3 | 99.3
1000 nM | 95.6 | 101 | 98.9 | 102 | 105
10000 nM | 104 | 104 | 88.8 | 103 | 101

Conditions | drug sensitivity score | relative viability EC50 [µM]
[10] | – | > 10
[11] | – | > 10
[12] | – | > 10
[13] | 0 | –
[14] | 0 | –
[15] | 0 | –
[16] | 0 | –
[17] | 0 | –
[18] | – | > 10
[19] | – | > 10

Nc1nc2c(ncn2[C@@H]2O[C@H](CO)[C@@H](O)[C@H]2O)c(=O)[nH]1 [guanosine]
cell viability [%]
Conditions | [2] | [3] | [4] | [5] | [6]
1 nM | 85.6 | 96 | 102 | 96.9 | 92.6
10 nM | 102 | 102 | 95.8 | 102 | 93.5
100 nM | 97.8 | 100 | 105 | 98.2 | 92.4
1000 nM | 99.9 | 97 | 100 | 100 | 89.7
10000 nM | 105 | 101 | 102 | 102 | 102

Conditions | drug sensitivity score | relative viability EC50 [µM]
[10] | – | > 10
[11] | – | > 10
[12] | – | > 10
[13] | 0 | –
[14] | 0 | –
[15] | 0 | –
[16] | 0 | –
[17] | 0 | –
[18] | – | > 10
[19] | – | > 10

OC[C@@H](O)[C@@H](O)CO [erythritol]
cell viability [%]
Conditions | [2] | [3] | [4] | [5] | [6]
1 nM | 94.1 | 102 | 108 | 94.8 | 105
10 nM | 101 | 97.9 | 116 | 98.1 | 102
100 nM | 97.9 | 112 | 100 | 97.8 | 101
1000 nM | 91 | 97 | 97.1 | 99.6 | 102
10000 nM | 100 | 98.7 | 98.9 | 97.7 | 98.1

Conditions | drug sensitivity score | relative viability EC50 [µM]
[10] | – | > 10
[11] | – | > 10
[12] | – | > 10
[13] | 0 | –
[14] | 0 | –
[15] | 0 | –
[16] | 0 | –
[17] | 0 | –
[18] | – | > 10
[19] | – | > 10
